The results in this text go back to US20220339150A1, “ENDOCANNABINOID SYSTEM-TARGETING PRODRUGS AND THERAPEUTIC USES THEREOF” (priority 2021, published 2022).

Data set [1] in a line: Stability in aqueous solutions (sodium phosphate buffer, 37° C.). The class given is physicochemical. The note with it: for half-life: buffer. The protocol: […] The solutions of prodrugs were prepared by adding 10 μL of stock solution (10 mg/mL in DMSO) to the preheated buffer. The solutions were stirred at a constant temperature of 37° C. At appropriate intervals, 75 μL of samples were mixed with 75 μL of MeOH and analyzed for remaining prodrug by HPLC.
The pseudo-first-order rate constants (kobs) and half-lives (t1/2) for the degradation of the prodrugs were determined from the linear slopes of the plots by taking the logarithm of the remaining prodrug over time. Equations: kobs=slope/−2.303 and t1/2=ln2/kobs.

Data set [2] can be described thus: Stability in 80% human plasma (serum). The class given is in vitro ADME. To be noted: 80% human serum (pH 7.4) at 37° C. The procedure: The rates of the degradation of the prodrugs were determined in 80% human serum (pH 7.4) at 37° C. as an indication of the susceptibility of prodrugs to undergo bioconversion after reaching the circulation. The reactions were initiated by adding the first 10 μL of the prodrug stock solution (10 mg/mL in DMSO) to 200 μL preheated sodium phosphate buffer solution (50 mM, pH 7.4, ionic strength 0.5), and then adding 800 μL preheated human serum. The solutions were stirred at a constant temperature of 37° C. At appropriate intervals, 50 μL of samples were mixed with 150 μL of ice-cold MeOH. After immediate mixing and centrifugation (5 min at 14.000 rpm), the resulting clear supernatant was analyzed for the remaining prodrug by HPLC.

A short description of data set [3]: Metabolic stability in human liver microsomes. The class given is in vitro ADME. The note with it: for half-life at 15 µg/mL / half-life: both sexes, human, microsomes. The protocol: The prodrugs were incubated with the human liver microsomes at 37° C. as an indication of the susceptibility of prodrugs to undergo bioconversion in the liver. The reactions were initiated by adding 1.5 μL of the prodrug stock solution (10 mg/mL in DMSO) to a preheated solution consisting of 748.5 μL potassium phosphate buffer solution (20 mM, pH 7.4, ionic strength 0.5), 200 μL NADPH, and 50 μLhuman liver microsomes (mixed gender, 0.5 ml at 20 mg/mL). The solutions were stirred at a constant temperature of 37° C. At appropriate intervals, 50 μLof samples were mixed with 100 μL of ice-cold MeOH. After immediate mixing and centrifugation (5 min at 14.000 rpm), the resulting clear supernatant was analyzed for the remaining prodrug by HPLC.
(Microsomes from liver hold many membrane-bound enzymes, among them those of drug oxidation.)

The test system of data set [4] is reconstructed human oral buccal epithelium cells (SkinEthic HOE, TR146 cells). Put plainly: In vitro buccal permeability (SkinEthic human oral epithelium). In kind it is in vitro ADME. The note with it: for Buccal permeation compared with parent cannabinoid (in words): 5% ethanol suspension; for Species making up the buccal flux (parent vs intact prodrug): Table 2; for Species making up the buccal flux (parent vs intact prodrug) / Species making up the buccal flux / formation of parent cannabinoid: remark in flux cell; for Flux compared with parent cannabinoid / Species making up the buccal flux / formation of parent cannabinoid / Flux (buccal): Table 4; for Flux compared with parent cannabinoid: buccal flux relative to parent; for Flux (buccal): suspension ca. 2 mg/ml in 5% EtOH/phosphate buffer pH 6.8, 37° C., receiver 15% HP-β-cyclodextrin. The procedure: The in vitro permeability studies were carried out in commercial reconstructed human oral buccal epithelium cells (SkinEthic™ human oral epithelium). The SkinEthic™ HOE model is composed of TR146 cells (derived from a squamous cell carcinoma of the buccal mucosa) cultivated on an inert polycarbonate filter at the air-liquid interface in a chemically defined medium. This model forms an epithelial tissue devoid of stratum corneum, resembling histologically to the mucosa of the oral cavity.
Upon receiving the cells, each insert (0.5 cm^2 or 0.33 cm^2) was placed in a plate containing 800 μL fresh medium at room temperature. The culture dishes were placed in the incubator at 37° C., 5% CO2, and saturated humidity overnight. Next day, the inserts were placed in a plate containing 800 μL 15% HP-β-cyclodextrin in H2O. The prodrugs were dissolved in 100% EtOH (5% (V/V) final conc.), and then sodium phosphate buffer solution (50 mM, pH 6.8, isotonic, 37° C.) was added (95% (V/V) final conc.). 400 μL of the prodrugs were applied as suspensions (ca. 2 mg/ml). The plates were stirred gently at 37° C. At appropriate intervals, the receptor compartment was sampled (100 μL) and replenished with fresh […] solution each time. The samples were mixed with 100 μL of MeOH, and analyzed for drug (both the parent cannabinoid and the prodrug) by HPLC-MS.
The buccal flux-values for the rate of delivery of drugs were determined from Fick's law of diffusion.

Data set [5] relates to reconstructed human epidermis cells. As to the kind of experiment: In vitro skin permeability (SkinEthic Episkin reconstructed human epidermis). The class given is in vitro ADME. The note with it: for Skin permeation, applied compound (parent or intact prodrug): receiver 15% HP-beta-CD pH 7.4. The protocol:
The in vitro permeability studies were carried out in commercial reconstructed human epidermis cells (SkinEthic™ Episkin Reconstructed human epidermis). This model is composed of TR146 cells (derived from a squamous cell carcinoma of the buccal mucosa) cultivated on an inert polycarbonate filter at the air-liquid interface in a chemically defined medium. This model forms an epithelial tissue devoid of stratum corneum, resembling histologically to the mucosa of the oral cavity.
Upon receiving the cells, each insert (0.5 cm^2 or 0.33 cm^2) was placed in a plate containing 800 μL fresh medium at room temperature. The culture dishes were placed in the incubator at 37° C., 5% CO2, and saturated humidity overnight. Next day, the inserts were placed in a plate containing 800 μL 15% HP-β-cyclodextrin in H2O. CBD and CBG, and prodrugs CBDp27 and CBGp1 were dissolved in two different vehicles, 1:1:1 prop gly:water:EtOH/6% Brij 98, and 100% mineral oil. The receiver solution was 15% HP-beta-CD in phosphate buffer (pH 7.4). 400 μL the prodrugs were applied as suspensions (ca. 2 mg/ml). The plates were stirred gently at 37° C. At appropriate intervals, the receptor compartment was sampled (100 μL) and replenished with fresh […] solution each time. The samples were mixed with 100 μL of MeOH, and analyzed for drug (both the parent drug and prodrug) by HPLC-MS.
The flux-values for the rate of delivery of drugs were determined from Fick's law of diffusion.

The mark [6] stands for this setting: pH 6.8, Table 3, aqueous buffer pH 6.8, 37° C., read-out: Half-life in aqueous solution (converted).
The mark [7] stands for this setting: pH 7.4, Table 3, 37° C., NADPH, read-out: Half-life in human liver microsomes (single determinations) (converted).
[8] abbreviates: Table 5, aqueous buffer pH 6.8, 37° C., single determinations.
The mark [9] stands for this setting: pH 6.8, Table 5, aqueous buffer pH 6.8, 37° C., single determinations, read-out: Half-life in aqueous solution (converted).
The mark [10] stands for this setting: pH 7.4, Table 5, 37° C., NADPH, read-out: Half-life in human liver microsomes (single determinations) (converted).
Where [11] appears, read: pH 7.4, Table 5, average of determinations, read-out: Half-life in human liver microsomes (avg.) (converted).

Entries after “also recorded” stand apart in the source; their conditions may differ. Where two headings read alike, the source gives them in different places.

As usually defined, the half-life is how long it takes for the measured level to halve. `C=C(C)[C@@H]1CCC(C)=C[C@H]1c1c(O)cc(CCCCC)cc1OC(=O)NCCN(C)C` [CBDp27, (1′R,2′R)-6-hydroxy-5′-methyl-4-pentyl-2′-(prop-1-en-2-yl)-1′,2′,3′,4′-tetrahydro-[1,1′-biphenyl]-2-yl (2-(dimethylamino)ethyl)carbamate]: the “Half-life in aqueous solution” value in data set [1] (Table 3, aqueous buffer pH 6.8, 37° C.) is 0.17 h; in data set [1] (Table 3, pH 3), “(pH 3 = stable,”; in data set [1] (Table 3, pH 4) it was “pH 4 = stable,”; in data set [1] (Table 3, pH 5) it was “pH 5 = stable,”. For the same molecule, the half-life was 0.14 h in data set [1] (setting [6]); 0.87 h in data set [1] (pH 7.4, Table 3, pH 7.4, read-out: Half-life in aqueous solution (converted)); 1.09 h in data set [1] (pH 8, Table 3, pH 8, read-out: Half-life in aqueous solution (converted)); 1.64 h in data set [1] (pH 9, Table 3, pH 9, read-out: Half-life in aqueous solution (converted)). In addition, in data set [2] (Table 3), the Half-life in serum entry is given as “stable”. For the same molecule, in data set [3] (Table 3, 37° C., NADPH), the “Half-life in human liver microsomes (single determinations)” value is given as 3.13; 3.13 h. The half-life at 15 µg/mL in data set [3] (setting [7]) was 3.13 h; in data set [3] (pH 7.4, Table 3, average of determinations, read-out: Half-life in human liver microsomes (avg.) (converted)) it was 3.13 h. The “Buccal permeation compared with parent cannabinoid (in words)” value in data set [4] was “better than that of CBD; also recorded: superior when compared to CBD and other prodrugs”. Besides, in data set [4], the “Species making up the buccal flux (parent vs intact prodrug)” value is listed as “CBD + prodrug”. Further, the “Skin permeation of prodrug relative to parent cannabinoid” value in data set [5] (mineral oil) was about 140 fold; in data set [5] (solvent mix) it was about 40 fold. The figures for the “Skin permeation, applied compound (parent or intact prodrug)” value in data set [5] (vehicle mineral oil) and in data set [5] (vehicle solvent mix (1:1:1 prop gly:water:EtOH/6% Brij 98)) were 3.28 ± 0.15 nmol/cm^2/h and 47.42 ± 5.23 nmol/cm^2/h, respectively.

Regarding `C=C(C)[C@@H]1CCC(C)=C[C@H]1c1c(OC(=O)N2CCN(C)CC2)cc(CCCCC)cc1OC(=O)N1CCN(C)CC1` [CBDp14, (1′R,2′R)-5′-methyl-4-pentyl-2′-(prop-1-en-2-yl)-1′,2′,3′,4′-tetrahydro-[1,1′-biphenyl]-2,6-diyl bis(4-methylpiperazine-1-carboxylate)], the half-life in data set [1] (Table 3 footnote f, 20% of ethanol in the solution, read-out: Half-life in aqueous solution with ethanol) was 50 h. In addition, the half-life in data set [1] (setting [6]) was 2.5 h. For the same molecule, the Half-life in serum result in data set [2] (Table 3) is “stable”. Moreover, the half-life at 15 µg/mL in data set [3] (setting [7]) is 0.86 h. Also, in data set [4], the “Buccal permeation compared with parent cannabinoid (in words)” value is “better than that of CBD; also recorded: significantly improved permeability compared to CBD” and the “Species making up the buccal flux (parent vs intact prodrug)” value is listed as “only intact prodrug”.

`C=C(C)[C@@H]1CCC(C)=C[C@H]1c1c(O)cc(CCCCC)cc1OC(=O)CN1CCN(C)CC1` [CBDp7, (1′R,2′R)-6-hydroxy-5′-methyl-4-pentyl-2′-(prop-1-en-2-yl)-1′,2′,3′,4′-tetrahydro-[1,1′-biphenyl]-2-yl 2-(4-methylpiperazin-1-yl)acetate]: the half-life in data set [1] (setting [6]) is 0.16 h; in data set [2] (human, serum, pH 7.4, Table 3), 2.6 h; in data set [3] (setting [7]), 0.12 h. In data set [4], the “Buccal permeation compared with parent cannabinoid (in words)” value is “better than that of CBD”. In addition, the “Species making up the buccal flux (parent vs intact prodrug)” value in data set [4] is 1/3 CBD & 2/3.

`CCCCCc1cc(O)c(C/C=C(\C)CCC=C(C)C)c(OC(=O)N2CCNCC2)c1` [CBGp5, (E)-2-(3,7-dimethylocta-2,6-dien-1-yl)-3-hydroxy-5-pentylphenyl piperazine-1-carboxylate] had a Half-life in aqueous solution in data set [1] (setting [8]) of 0.26 h. Also, the half-life in data set [1] (setting [9]) is 0.38 h. For the same molecule, the Half-life in serum result in data set [2] (Table 5) is given as “No degradation”. The molecule also registered a Half-life in human liver microsomes (single determinations) in data set [3] (Table 5, 37° C., NADPH) of 1.79 h. Moreover, the half-life at 15 µg/mL in data set [3] (setting [10]) was 1.29 h. Further, in data set [3] (setting [11]), the half-life at 15 µg/mL is 1.54 h. Moreover, in data set [4], the “Flux compared with parent cannabinoid” value is “No improvement”, the “Species making up the buccal flux / formation of parent cannabinoid” value is recorded as “NO significant formation of CBG” and the “Flux (buccal)” value is 10.31 ± 0.54 (prodrug) nmol/cm^2/h.

Molecule `CCCCCc1cc(OC(=O)N2CCNCC2)c2c(c1)OC(C)(C)[C@@H]1CCC(C)=C[C@@H]21` [THCp3, (6aR,10aR)-6,6,9-trimethyl-3-pentyl-6a,7,8,10a-tetrahydro-6H-benzo[c]chromen-1-yl piperazine-1-carboxylate] yielded a Half-life in aqueous solution in data set [1] (setting [8]) of 1.07 h. In addition, the half-life in data set [1] (setting [9]) was 0.76 h. In addition, in data set [2] (Table 5), the Half-life in serum entry was “No degradation”. The half-life in data set [3] (setting [11]) is 3.65 h. In data set [4], the “Buccal permeation compared with parent cannabinoid (in words)” value was “slightly better than THC”, the “Flux compared with parent cannabinoid” value was 1.6-times better, the “Species making up the buccal flux / formation of parent cannabinoid” value is recorded as “NO significant formation of THC” and the “Flux (buccal)” value is 31.30 ± 1.31 (prodrug) nmol/cm^2/h.

Molecule `CCCCCc1cc(O)c(C/C=C(\C)CCC=C(C)C)c(OC(=O)N2CCN(C)CC2)c1` [CBGp2, (E)-2-(3,7-dimethylocta-2,6-dien-1-yl)-3-hydroxy-5-pentylphenyl 4-methylpiperazine-1-carboxylate] returned a Half-life in aqueous solution in data set [1] (setting [8]) of 1.17 h. In addition, in data set [1] (setting [9]), the half-life was 1.14 h. Besides, the Half-life in serum entry in data set [2] (Table 5) was “No degradation”. Moreover, the Half-life in human liver microsomes (single determinations) in data set [3] (Table 5, 37° C., NADPH) turned out to be 1.73 h. Also, the half-life at 15 µg/mL in data set [3] (setting [10]) is 1.62 h. The half-life at 15 µg/mL in data set [3] (setting [11]) was 1.68 h. Moreover, in data set [4], the “Flux compared with parent cannabinoid” value is recorded as “No improvement”, the “Species making up the buccal flux / formation of parent cannabinoid” value was “NO significant formation of CBG” and the “Flux (buccal)” value is given as 4.45 ± 0.45 (prodrug) nmol/cm^2/h.
